Assays:
PBT-017 glioma cells [1] = test: Apoptosis of PBT-017 glioma cells, cell counts; type: cell-based; details: 2 or 10 μM, 4 days
Procedure: PBT-017 glioma cells were incubated with nothing (control), DMSO, and COH-SR4 at 2 μM or 10 μM for 4 days.

PBT-017 glioma cells [2] = test: Combination index with chemotherapy drugs, PBT-017; type: cell-based
Procedure: Effects of combination of COH-SR4 and a chemotherapy drug such as TMZ, SN38, CPT-11, and 5-FU were studied by combination index (CI) theorem and plot using the method described in Chou (“Experimental Design, and Computerized Simulation of Synergism and Antagonism in Drug Combination Studies,” Pharmacological Reviews, Vol. 58, No. 3), which is incorporated herein by reference in its entirety.
COH-SR4 and a chemotherapy drug (TMZ, SN38, CPT-11, or 5-FU) were dissolved in DMSO individually, and then diluted to the appropriate concentration in the same cell culture media before applying to cells of each cell line. After 4 days, the amount of ATP present in the cell lysates were assessed using Progema's CellGlo kit. The CI of each combination of COH-SR4 and the chemotherapy drug was calculated and plotted against the concentration of COH-SR4 for each concentration of the chemotherapy drug used.

HUVEC cells = test: HUVEC cytotoxicity; type: cell-based; details: 48 hours, up to 10 μM
Procedure: HUVEC were treated with COH-SR4 at a concentration from 0.1˜100 μM for 48 hours.

[3] = test system: B16-F0 mouse and A2058 human melanoma cells; test: Cell cycle FACS analysis, melanoma; type: cell-based; details: 18 h
Procedure: 2×10^5 cells were treated with COH-SR4 (0 μM, 5 μM or 10 μM) for 18 h at 37° C. After treatment, floating and adherent cells were collected, washed with PBS, and fixed with 70% ethanol. On the day of flow analysis, cell suspensions were centrifuged; counted and same numbers of cells were resuspended in 500 μL PBS in flow cytometry tubes. Cells were then incubated with 2.5 μL of RNase (stock 20 mg/mL) at 37° C. for 30 min after which they were treated with 10 μL of propidium iodide (stock 1 mg/mL) solution and then incubated at room temperature for 30 min in the dark. The stained cells were analyzed using the Beckman Coulter Cytomics FC500, Flow Cytometry Analyzer. Results were processed using CXP2.2 analysis software from Beckman Coulter.

B16-F0 melanoma = type: in vivo
Procedure: For melanoma studies, C57B mice (for syngeneic B16-F0 mouse melanoma model) and Hsd: Athymic nude nu/nu mice (for A2058 human melanoma mouse xenografts model), were obtained from Harlan, Indianapolis, Ind. All animal experiments were carried out in accordance with a protocol approved by the Institutional Animal Care and Use Committee (IACUC). In each model, ten 10-weeks-old mice were divided into two groups of 5 animals (treated with corn oil (vehicle), and COH-SR4 compound 4 mg/kg b.w.). All animals were injected with 2×10^6 melanoma cells suspensions in 100 μL of PBS, subcutaneously into one flank of each mouse. Treatment was started 10 days after the implantation to see palpable tumor growth. Treatment consisted of 0.1 mg of COH-SR4/mice in 200 μL corn oil by oral gavage alternate day. Control groups were treated with 200 μL corn oil by oral gavage alternate days. Animals were examined daily for signs of tumor growth. Tumors were measured in two dimensions using calipers. Photographs of animals were taken at day 1, day 10, day 14, day 18, day 20, day 30, and day 51 after subcutaneous injection, are shown for all groups. Photographs of tumors were also taken at day 20 (for syngeneic model), and at day 51 (for xenograft model).
C57B mice for syngeneic model were obtained from Harlan, Indianapolis, Ind. All animal experiments were carried out in accordance with a protocol approved by the Institutional Animal Care and Use Committee (IACUC). Ten 10-weeks-old mice were divided into two groups of 5 animals (treated with corn oil (vehicle), and COH-SR4 4 mg/kg body weight). All 10 animals were injected with 1×10^6 mouse melanoma cells (B16-F0) suspensions in 100 μL of PBS, subcutaneously into one flank of each mouse. Treatment was started 10 days after the B16 melanoma cells implantation to see palpable tumor growth. Treatment consisted of 0.1 mg of COH-SR4/mice in 200 μL corn oil by oral gavage alternate day. Control groups were treated with 200 μL corn oil by oral gavage alternate day. Animals were examined daily for signs of tumor growth, and body weights were recorded. Tumors were measured in two dimensions using calipers. Photographs of animals were taken at day 1, day 10, day 14, day 18, and day 20 after subcutaneous injection, are shown for all groups. Photographs of tumors were also taken at day 20.
C57B mice (for syngeneic B16-F0 mouse melanoma model) and Hsd: Athymic nude nu/nu mice (for A2058 human melanoma mouse xenografts model), were used for testing the impact of oral administration of COH-SR4 on melanoma progression in vivo models. In each model, ten 10-weeks-old mice were divided into two groups of 5 animals (treated with corn oil (vehicle), and COH-SR4 compound (4 mg/kg b.w.). All animals were injected with 2×10^6 melanoma cells suspensions in 100 μL of PBS, subcutaneously into one flank of each mouse. Treatment was started 10 days after the implantation of melanoma cells. Treatment consisted of 0.1 mg of COH-SR4/mice in 200 μL corn oil by oral gavage on alternate days. Control groups were treated with 200 μL corn oil by oral gavage alternate day. Animals were examined daily for signs of tumor growth and body weights were recorded. […] Animals were examined daily for signs of tumor growth. Tumors were measured in two dimensions using calipers. […] Tumors were measured in two dimensions using calipers and time-course analysis of tumor regression was performed during the study. […]

**Q.** `O=C(Nc1cc(Cl)cc(Cl)c1)Nc1cc(Cl)cc(Cl)c1` [COH-SR4, 1,3-bis(3,5-dichlorophenyl) urea] was tested. Which “fraction of apoptotic cells” value (PBT-017 glioma cells [1]) did it give?
**A.** increased the fraction of apoptotic cells

**Q.** And the “combination effect (CI) with 5-FU” value (PBT-017 glioma cells [2]; COH-SR4 <0.05 μM + 5-FU >250 μM)?
**A.** Additive effects

**Q.** What about the “combination effect (CI) with CPT-11” value (PBT-017 glioma cells [2]; COH-SR4 <0.5 μM + CPT-11 <0.0625 μM) of the same compound?
**A.** Synergism

**Q.** And the “combination effect (CI) with SN-38” value (PBT-017 glioma cells [2]; COH-SR4 <0.5 μM + SN-38 <0.0004 μM)?
**A.** Synergism

**Q.** What about the “combination effect (CI) with TMZ” value (PBT-017 glioma cells [2]; COH-SR4 <0.5 μM + TMZ 25 μM) of the same compound?
**A.** Synergism

**Q.** What about the “combination effect (CI) with TMZ” value (PBT-017 glioma cells [2]; COH-SR4 <1.0 μM + TMZ >100 μM) of the same compound?
**A.** Additive effects

**Q.** And the “combination effect (CI) with SN-38” value (PBT-017 glioma cells [2]; COH-SR4 >0.5 μM + SN-38 <0.001 μM)?
**A.** Additive effects

**Q.** And the “combination effect (CI) with CPT-11” value (PBT-017 glioma cells [2]; COH-SR4 >1.0 μM + CPT-11 <0.5 μM)?
**A.** Additive effects

**Q.** What about the “cytotoxicity to HUVEC cells” value (HUVEC cells) of the same compound?
**A.** almost no cytotoxicity

**Q.** And the “cells accumulated in G2 phase (G2/M phase arrest)” value [3]?
**A.** ~50%

**Q.** What about the “tumor cross-section areas compared to corn oil” value (B16-F0 melanoma; Example 16, 4 mg/kg oral gavage alternate day) of the same compound?
**A.** significantly smaller

**Q.** What about the day of death (B16-F0 melanoma; Example 16, 4 mg/kg, corn oil only died on day 20) of the same compound?
**A.** 48 days

**Q.** What about the “tumor weights compared to corn oil” value (B16-F0 melanoma; Example 16, day 20) of the same compound?
**A.** significantly smaller

**Q.** What about the tumor weight (B16-F0 melanoma; Example 22, day 20, control 2.36±0.2 g) of the same compound?
**A.** 1.07 ± 0.2 g

**Q.** What about the survival (B16-F0 melanoma; Example 22, vehicle censored by day 20±2) of the same compound?
**A.** 50 ± 5 days
